Results: paper PMC5762315, “Inhibition of polo-like kinase 4 (PLK4): a new therapeutic option for rhabdoid tumors and pediatric medulloblastoma” (Oncotarget, 2017)
Values joined by “and” are separate entries in the source; they are usually repeats but may differ in a detail not shown here. Equal entries are not always repeated.

Key:
Experiment in all cases: biochemical
Assay type in all cases: biochemical
various kinases [1] = biological target: various kinases (Homo sapiens, UniProt P10721, V559D/V654A); conditions: KIT V559D V654A
various kinases [2] = biological target: various kinases (Homo sapiens, UniProt P22607); conditions: FGFR3
various kinases [3] = biological target: various kinases (Homo sapiens, UniProt Q12866); conditions: MERTK (cMER)
Sequence of various kinases (Homo sapiens, UniProt Q12866) (Q12866 21-999): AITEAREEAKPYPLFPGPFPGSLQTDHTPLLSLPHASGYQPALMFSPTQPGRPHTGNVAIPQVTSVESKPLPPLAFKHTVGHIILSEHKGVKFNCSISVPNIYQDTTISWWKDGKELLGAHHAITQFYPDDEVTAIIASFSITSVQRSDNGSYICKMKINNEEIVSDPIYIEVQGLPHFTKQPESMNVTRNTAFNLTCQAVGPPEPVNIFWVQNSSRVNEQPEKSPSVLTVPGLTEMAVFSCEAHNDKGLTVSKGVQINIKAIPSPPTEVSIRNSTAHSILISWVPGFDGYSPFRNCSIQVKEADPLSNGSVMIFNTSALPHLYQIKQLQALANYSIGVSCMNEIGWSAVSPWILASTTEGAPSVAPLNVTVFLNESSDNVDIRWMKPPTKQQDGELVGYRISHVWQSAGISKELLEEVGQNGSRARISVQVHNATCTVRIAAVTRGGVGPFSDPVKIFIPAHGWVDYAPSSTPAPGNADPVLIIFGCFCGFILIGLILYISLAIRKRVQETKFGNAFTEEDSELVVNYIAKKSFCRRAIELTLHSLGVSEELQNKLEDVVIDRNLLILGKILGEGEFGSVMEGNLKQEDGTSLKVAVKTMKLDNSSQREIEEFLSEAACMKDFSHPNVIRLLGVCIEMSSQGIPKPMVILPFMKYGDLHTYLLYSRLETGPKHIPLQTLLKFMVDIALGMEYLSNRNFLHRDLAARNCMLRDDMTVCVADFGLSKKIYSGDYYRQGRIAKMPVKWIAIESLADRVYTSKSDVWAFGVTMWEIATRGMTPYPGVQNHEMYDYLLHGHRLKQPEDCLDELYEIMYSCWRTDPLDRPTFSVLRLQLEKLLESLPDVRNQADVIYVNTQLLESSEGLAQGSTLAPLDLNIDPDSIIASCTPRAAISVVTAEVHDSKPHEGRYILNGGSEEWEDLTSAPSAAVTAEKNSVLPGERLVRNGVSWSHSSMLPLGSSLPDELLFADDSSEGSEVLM

various kinases [4] = biological target: various kinases (Homo sapiens, UniProt Q13557); conditions: CAMK2D (CaMKII delta)
various kinases [5] = biological target: T1, various kinases (Homo sapiens, UniProt Q9HBY8); conditions: kinase SGK2; ZLYTE
T1 sequence (Q9HBY8 1-367): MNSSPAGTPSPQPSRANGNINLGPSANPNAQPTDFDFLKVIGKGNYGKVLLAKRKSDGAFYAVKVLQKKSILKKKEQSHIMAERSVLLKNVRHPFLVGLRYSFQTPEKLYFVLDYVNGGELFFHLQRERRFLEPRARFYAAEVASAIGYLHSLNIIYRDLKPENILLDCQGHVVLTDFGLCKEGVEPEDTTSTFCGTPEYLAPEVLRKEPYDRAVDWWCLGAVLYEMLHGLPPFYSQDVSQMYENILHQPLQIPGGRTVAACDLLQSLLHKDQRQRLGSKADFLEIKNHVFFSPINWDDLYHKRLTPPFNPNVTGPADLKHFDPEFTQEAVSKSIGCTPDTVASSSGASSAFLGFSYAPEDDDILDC

various kinases [6] = biological target: various kinases (Homo sapiens, UniProt Q96L34); conditions: MARK4
Sequence of various kinases (Homo sapiens, UniProt Q96L34) (Q96L34 whole entry): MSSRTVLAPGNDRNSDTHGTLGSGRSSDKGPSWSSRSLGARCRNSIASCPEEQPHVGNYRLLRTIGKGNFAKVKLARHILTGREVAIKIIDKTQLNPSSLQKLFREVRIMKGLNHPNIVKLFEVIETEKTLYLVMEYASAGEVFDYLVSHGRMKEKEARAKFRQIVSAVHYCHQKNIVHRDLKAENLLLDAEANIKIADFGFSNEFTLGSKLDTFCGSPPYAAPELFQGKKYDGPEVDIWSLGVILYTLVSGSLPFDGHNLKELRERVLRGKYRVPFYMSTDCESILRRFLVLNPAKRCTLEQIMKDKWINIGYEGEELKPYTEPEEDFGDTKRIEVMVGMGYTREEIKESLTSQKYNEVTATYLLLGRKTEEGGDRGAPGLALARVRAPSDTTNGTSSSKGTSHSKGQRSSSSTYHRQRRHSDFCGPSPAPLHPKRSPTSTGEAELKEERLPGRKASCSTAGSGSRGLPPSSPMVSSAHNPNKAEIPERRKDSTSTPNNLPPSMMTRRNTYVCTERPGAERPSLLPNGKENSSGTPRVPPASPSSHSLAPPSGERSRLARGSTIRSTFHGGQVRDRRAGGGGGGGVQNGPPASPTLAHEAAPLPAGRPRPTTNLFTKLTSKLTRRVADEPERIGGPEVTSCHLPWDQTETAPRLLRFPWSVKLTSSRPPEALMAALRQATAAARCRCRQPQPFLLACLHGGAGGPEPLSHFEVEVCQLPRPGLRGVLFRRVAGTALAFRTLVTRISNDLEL

various kinases [7] = biological target: various kinases (Homo sapiens, UniProt Q05655); conditions: kinase PRKCD (PKC delta); ZLYTE
Sequence of various kinases (Homo sapiens, UniProt Q05655) (Q05655 whole entry): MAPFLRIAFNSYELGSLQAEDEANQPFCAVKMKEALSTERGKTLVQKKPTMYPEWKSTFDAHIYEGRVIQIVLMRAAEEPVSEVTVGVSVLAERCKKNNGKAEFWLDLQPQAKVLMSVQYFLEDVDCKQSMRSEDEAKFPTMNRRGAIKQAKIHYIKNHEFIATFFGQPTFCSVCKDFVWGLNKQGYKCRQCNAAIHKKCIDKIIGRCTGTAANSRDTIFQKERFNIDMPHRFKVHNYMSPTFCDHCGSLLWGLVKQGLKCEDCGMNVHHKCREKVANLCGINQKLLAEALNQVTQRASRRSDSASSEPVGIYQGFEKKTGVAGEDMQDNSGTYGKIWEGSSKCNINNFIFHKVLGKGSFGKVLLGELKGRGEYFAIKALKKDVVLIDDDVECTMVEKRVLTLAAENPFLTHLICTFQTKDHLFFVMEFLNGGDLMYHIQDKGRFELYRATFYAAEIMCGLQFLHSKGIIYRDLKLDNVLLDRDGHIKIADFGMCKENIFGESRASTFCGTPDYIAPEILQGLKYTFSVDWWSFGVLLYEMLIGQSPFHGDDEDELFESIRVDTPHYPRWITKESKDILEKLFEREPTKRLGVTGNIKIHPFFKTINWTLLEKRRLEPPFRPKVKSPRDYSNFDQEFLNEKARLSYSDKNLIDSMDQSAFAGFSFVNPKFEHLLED

various kinases [8] = biological target: various kinases (Homo sapiens, UniProt Q5VT25); conditions: CDC42 BPA (MRCKA)
Sequence of various kinases (Homo sapiens, UniProt Q5VT25) (Q5VT25 whole entry): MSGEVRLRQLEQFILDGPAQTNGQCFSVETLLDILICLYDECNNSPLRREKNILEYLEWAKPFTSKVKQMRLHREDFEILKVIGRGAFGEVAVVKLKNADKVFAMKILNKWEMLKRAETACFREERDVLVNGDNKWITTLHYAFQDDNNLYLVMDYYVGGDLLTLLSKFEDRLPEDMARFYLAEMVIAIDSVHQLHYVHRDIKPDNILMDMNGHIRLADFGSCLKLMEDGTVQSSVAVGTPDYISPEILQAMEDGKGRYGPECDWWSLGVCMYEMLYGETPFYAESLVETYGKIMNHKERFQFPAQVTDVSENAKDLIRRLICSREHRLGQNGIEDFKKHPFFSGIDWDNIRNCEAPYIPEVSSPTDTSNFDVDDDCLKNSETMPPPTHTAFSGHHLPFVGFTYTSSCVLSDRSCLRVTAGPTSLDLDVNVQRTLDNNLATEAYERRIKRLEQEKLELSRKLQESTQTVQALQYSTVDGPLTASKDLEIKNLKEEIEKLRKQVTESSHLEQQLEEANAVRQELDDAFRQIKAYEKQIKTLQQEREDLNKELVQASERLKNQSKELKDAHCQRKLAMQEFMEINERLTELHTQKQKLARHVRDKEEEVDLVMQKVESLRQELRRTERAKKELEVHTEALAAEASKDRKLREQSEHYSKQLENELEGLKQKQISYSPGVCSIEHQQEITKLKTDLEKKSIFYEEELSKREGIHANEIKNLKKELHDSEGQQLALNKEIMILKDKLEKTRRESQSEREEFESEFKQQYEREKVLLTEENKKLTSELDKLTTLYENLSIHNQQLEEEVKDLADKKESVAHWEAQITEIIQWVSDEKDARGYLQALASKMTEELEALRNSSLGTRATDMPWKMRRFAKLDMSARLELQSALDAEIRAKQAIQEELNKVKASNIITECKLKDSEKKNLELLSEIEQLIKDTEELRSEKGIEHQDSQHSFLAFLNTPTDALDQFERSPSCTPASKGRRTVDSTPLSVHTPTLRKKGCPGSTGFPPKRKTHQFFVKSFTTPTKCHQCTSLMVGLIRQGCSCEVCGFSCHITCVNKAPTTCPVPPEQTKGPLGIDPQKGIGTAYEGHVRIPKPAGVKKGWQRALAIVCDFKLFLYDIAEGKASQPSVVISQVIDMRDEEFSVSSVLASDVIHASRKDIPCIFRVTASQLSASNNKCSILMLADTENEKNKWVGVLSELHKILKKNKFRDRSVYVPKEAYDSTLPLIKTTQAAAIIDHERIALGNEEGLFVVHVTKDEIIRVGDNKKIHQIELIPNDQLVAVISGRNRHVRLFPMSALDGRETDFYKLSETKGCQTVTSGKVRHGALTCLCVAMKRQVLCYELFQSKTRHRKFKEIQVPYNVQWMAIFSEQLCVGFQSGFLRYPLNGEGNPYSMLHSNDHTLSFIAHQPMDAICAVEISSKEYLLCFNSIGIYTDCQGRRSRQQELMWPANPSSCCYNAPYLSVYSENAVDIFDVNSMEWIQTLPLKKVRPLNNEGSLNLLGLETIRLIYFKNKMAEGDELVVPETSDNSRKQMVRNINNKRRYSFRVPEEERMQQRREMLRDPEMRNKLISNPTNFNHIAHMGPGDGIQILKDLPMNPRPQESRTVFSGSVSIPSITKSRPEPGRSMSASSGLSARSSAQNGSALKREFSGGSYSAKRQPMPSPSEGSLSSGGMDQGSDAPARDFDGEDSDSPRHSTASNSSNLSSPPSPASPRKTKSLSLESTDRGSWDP

various kinases [9] = biological target: various kinases (Homo sapiens, UniProt Q96NX5); conditions: CAMK1G (CAMKI gamma)
various kinases [10] = biological target: various kinases (Homo sapiens, UniProt P51451); conditions: BLK
various kinases [11] = biological target: T2, various kinases (Homo sapiens, UniProt Q13237); conditions: kinase PRKG2 (PKG2); ZLYTE
T2 sequence (Q13237 1-762): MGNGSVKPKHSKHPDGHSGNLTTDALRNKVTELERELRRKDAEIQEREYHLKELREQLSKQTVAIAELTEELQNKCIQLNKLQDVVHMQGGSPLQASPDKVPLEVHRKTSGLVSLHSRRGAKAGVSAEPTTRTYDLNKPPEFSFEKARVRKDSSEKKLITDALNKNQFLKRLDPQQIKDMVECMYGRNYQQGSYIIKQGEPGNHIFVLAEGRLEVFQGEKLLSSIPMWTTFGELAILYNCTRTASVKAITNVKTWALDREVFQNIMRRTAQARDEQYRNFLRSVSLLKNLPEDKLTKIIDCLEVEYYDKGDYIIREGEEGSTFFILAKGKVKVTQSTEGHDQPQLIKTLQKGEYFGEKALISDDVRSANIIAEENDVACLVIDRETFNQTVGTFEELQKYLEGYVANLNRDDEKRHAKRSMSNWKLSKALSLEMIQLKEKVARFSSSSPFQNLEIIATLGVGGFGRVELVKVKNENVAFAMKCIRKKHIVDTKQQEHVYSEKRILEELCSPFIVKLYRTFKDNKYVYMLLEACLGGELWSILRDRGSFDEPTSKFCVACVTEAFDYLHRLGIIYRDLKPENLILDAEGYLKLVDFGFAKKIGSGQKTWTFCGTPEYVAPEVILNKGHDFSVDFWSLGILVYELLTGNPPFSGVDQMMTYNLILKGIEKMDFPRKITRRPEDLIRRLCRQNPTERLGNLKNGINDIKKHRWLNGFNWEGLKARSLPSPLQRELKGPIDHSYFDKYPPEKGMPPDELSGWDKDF

various kinases [12] = biological target: various kinases (Homo sapiens, UniProt P23443); conditions: kinase RPS6KB1 (p70S6K); ZLYTE
Sequence of various kinases (Homo sapiens, UniProt P23443) (P23443 whole entry): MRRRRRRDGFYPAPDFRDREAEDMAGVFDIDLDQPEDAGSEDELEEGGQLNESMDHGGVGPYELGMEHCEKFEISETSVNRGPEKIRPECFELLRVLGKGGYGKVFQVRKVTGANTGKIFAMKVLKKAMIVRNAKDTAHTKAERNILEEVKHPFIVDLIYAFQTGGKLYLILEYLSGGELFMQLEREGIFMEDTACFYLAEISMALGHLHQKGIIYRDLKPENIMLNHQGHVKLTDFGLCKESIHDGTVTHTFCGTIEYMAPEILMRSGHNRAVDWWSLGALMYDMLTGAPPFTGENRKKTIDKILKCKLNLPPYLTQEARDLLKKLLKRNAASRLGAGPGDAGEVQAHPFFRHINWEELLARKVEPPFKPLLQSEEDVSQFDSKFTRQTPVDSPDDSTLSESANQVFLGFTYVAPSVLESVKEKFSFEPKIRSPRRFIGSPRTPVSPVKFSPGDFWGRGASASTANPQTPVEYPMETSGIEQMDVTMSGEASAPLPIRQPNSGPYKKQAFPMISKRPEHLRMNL
Wherever % Inhibition Average is given: test concentration or dose not given here.
Wherever % Inhibition Duplicate #1 is given: test concentration or dose not given here.
Wherever % Inhibition Duplicate #2 is given: test concentration or dose not given here.

`COc1ccc2c(c1)[C@]1(C[C@H]1c1ccc3c(/C=C/c4ccc(CN5C[C@@H](C)O[C@@H](C)C5)cc4)n[nH]c3c1)C(=O)N2` [CFI-400945] was tested, and the “% Inhibition” value (various kinases [1]) was 5% and 6%, the “% Inhibition” value (various kinases [2]) was 11% and 14% and the “% Inhibition” value (various kinases [3]) was -2% and 1%. For the same molecule, the “% Inhibition” value (various kinases [4]) was 28% and 37%, the “% Inhibition Average” value (various kinases [5]) was 5% and the “% Inhibition Duplicate #1” value (various kinases [5]) was 4%. The “% Inhibition Duplicate #2” value (various kinases [5]) was 5%, the “% Inhibition” value (various kinases [6]) was 8% and 3% and the “% Inhibition Average” value (various kinases [7]) was -2%. The “% Inhibition Duplicate #1” value (various kinases [7]) was -8%, the “% Inhibition Duplicate #2” value (various kinases [7]) was 4% and the “% Inhibition” value (various kinases [8]) was 3% and 10%. For the same molecule, the “% Inhibition” value (various kinases [9]) was -3% and 2%, the “% Inhibition” value (various kinases [10]) was 9% and 14% and the “% Inhibition Average” value (various kinases [11]) was 1%. The “% Inhibition Duplicate #1” value (various kinases [11]) was 2%, the “% Inhibition Duplicate #2” value (various kinases [11]) was 0% and the “% Inhibition Average” value (various kinases [12]) was 7%. For the same molecule, the “% Inhibition Duplicate #1” value (various kinases [12]) was 6% and the “% Inhibition Duplicate #2” value (various kinases [12]) was 8%.
